From patent publication US10307418B2, “Azole pharmaceutical formulations for parenteral administration and methods for preparing and using the same as treatment of diseases sensitive to azole compounds” (Platform Brightworks Two, Ltd., priority 2010, dated 2019)
Converted amounts (≈) assume the structure as drawn. Read-outs that look alike come from different tables or passages of the source.

Tests used:
in vivo = details: both, Swiss Webster, mouse, plasma, iv, 5 mg/kg
Procedure: Swiss Webster mice were used for pharmacokinetic studies of ITZA and its analogs. The dilation of the vein was accomplished by warming up the mice using a heat lamp. […] Mice were allowed to recover and blood samples were obtained through cardiac puncture under general anesthesia with Isoflurane/oxygen by vaporizer at various time points. Plasma was obtained by centrifugation of blood sample at 3,200 rpm for 5 min. at 4° C. Plasma proteins were precipitated by adding acetonitrile (twice the volume of plasma). The mixture was vortexed for 30 seconds and centrifuged for 5 min. at 14,000 rpm. The supernatant was saved and was injected into the HPLC to determine the respective drug concentrations.
Unless specified, the analogous experiments were performed using POSA as an alternative to ITZA; Swiss Webster mice of both sexes with a body weight of 25-30 g were used for the in vivo pharmacology experiments (Harlan-Sprague-Dawley, Houston, Tex.). The animals were allowed a minimum of 7 days after arrival to accommodate to the new environment and allowed free access to commercial feed and tap water prior to and during the experimentation period. The animals were housed in an Association for the Assessment and Accreditation of Laboratory Animal Care International (AAALAC)-approved facility that meets the requirements of the USDA, NIH, and DHHS.
The ITZA dose of 5 mg/kg BW was determined to be a suitable test dose that could be administered to the mice as a slow (3-4 min) IV bolus injection without requiring sedation, but could be performed with only minimal physical restraint of the animals in a standard funnel-type cage.
The ITZA was formulated in the H3 solvent system described above as the preferred solvent to a stock concentration of 4-5 mg/mL and then diluted with NS (ratio 1:1) so the intended dose (5.0 mg/kg BW) could be injected in a tail vein in a total volume of approximately 100 μL. […] No sedative premedication was used for the mice in this experiment to avoid the possible induction of microsomal liver enzymes that could modify ITZA metabolism. Thus, the animals were unanesthetized, being only physically restrained during and immediately following the drug injection.
Blood samples (0.5-1.0 mL) were drawn through cardiac puncture into heparinized tubes at selected time points prior to the drug infusion (“blank”), and from 5 min to 1 hour after drug injection for determination of ITZA concentrations, and for 5 min to about 7 hrs in the POSA experiment. The mice were exposed to 2% -4% isoflurane for general anesthesia. Blood samples were obtained through cardiac puncture and immediately deposited in heparinized microcentrifuge tubes.

[1] = cited from earlier work
[2] = test system: Aspergillus fumigatus (Clinical Lab isolate); assay: Mold susceptibility test, MIC; type: cell-based; details: tested range 75 μg/mL to 0.07 μg/mL, read out at 48 hrs
Procedure: Two hyaline molds were tested with a standard read out at 48 hrs:
Tested drug range: 75 μg/mL to 0.07 μg/mL
Briefly, susceptibility tests were set-up using a standardized methodology (CLSI […] standard). Drugs were diluted into RPMI-Mops medium (Yeast One Broth (Sensititer, product Y3462, Trek Diagnostic Systems, Cleveland, Ohio) Sensititer Lot number 151416SA-expiration date 2011-01). Two different strains of yeast were tested, the standardized evaluation/read out was performed at 24 hours after the start of each culture. The tests were repeated twice and all MIC (minimum inhibitory concentration) values are reported as an average of the three experiments.

[3] = Stability of ITZA/POSA in solvent vehicles (HPLC); type: physicochemical
[4] = test system: Zygomycete (Clinical Lab isolate, MDACC); assay: Extended mold testing, MIC (CLSI M38A); type: cell-based; details: H3 final use-formulation, range 75 μg/mL to 0.07 μg/mL, 48 hr, read-out: MIC
Source text: To further determine the antifungal activity of the compounds in the new formulation systems we investigated the efficacy of the various agents against additional strains of mucor and Aspergillus (9/-16-9/20/2010) (The Rhizomucor was a clinical isolate from a patient isolate) and the Aspergillus fumigatus (ATCC strain 90906) used was a repeat from the previously described experiment. Again, the susceptibility tests were set-up using the standardized test method (CLSI M38A). The used drugs were provided in the described H3 final use-formulation that has been previously described. All drugs were diluted in RPMI-Mops medium (YeastOne, Sensititer Lot 151416SA, expiration date January 2011).
As before two different molds were tested with a standard read out at 48 hr: • Drug dilution range 75 μg/mL to 0.07 μg/mL. • Aspergillus fumigatus (ATCC strain 90906) Zygomycete (Clinical Lab isolate, MDACC)

CCC(C)n1ncn(-c2ccc(N3CCN(c4ccc(OCC5COC(Cn6cncn6)(c6ccc(Cl)cc6Cl)O5)cc4)CC3)cc2)c1=O (centres unmarked) [ITZA, itraconazole]
half-life (in vivo): ~30 min
known plasma half-life ([1]; literature (Ref 24, 32, 42, 45)): 600 to 660 min
bioavailability ([1]; oral preparations, literature): approximately 50%
MIC ([2]; Aspergillus fumigatus, 48 h, read-out: MIC): 0.6 µg/mL (≈ 0.85 µM)
MIC [2]: 0.3 µg/mL (≈ 0.425 µM)
Stability (% remaining) ([3]; 2-6 mg/mL in composite (prototype) solvent vehicles, more than three days or 72 hours at RT): more than 90%
Stability (%) ([3]; H3D, 4 mg/mL, 0 hr): 100%
Stability (%) ([3]; H3D, 4 mg/mL, 2 hr): 102%
Stability (%) ([3]; H3D, 4 mg/mL, 4 hr): 101%
Stability (%) ([3]; H3D, 4 mg/mL, 8 hr): 99%
Stability (%) ([3]; H3D, 4 mg/mL, 24 hr): 97%
stability of ITZA ([3]; H3D, day 0): 100%
stability of ITZA ([3]; H3D, day 1): 94%
stability of ITZA ([3]; H3D, day 2): 95%
stability of ITZA ([3]; H3D, day 3): 93%
stability of ITZA ([3]; H3D, day 4): 94%
stability of ITZA ([3]; H3D, day 5): 98%
stability of ITZA ([3]; H3D/5% dex., day 0): 100%
stability of ITZA ([3]; H3D/5% dex., day 1): 100%
stability of ITZA ([3]; H3D/5% dex., day 2): 103%
stability of ITZA ([3]; H3D/5% dex., day 4): 99%
stability of ITZA ([3]; H3D/5% dex., day 5): 93%
stability of ITZA ([3]; H3D/10% Dex., day 0): 100%
stability of ITZA ([3]; H3D/10% Dex., day 1): 98%
stability of ITZA ([3]; H3D/10% Dex., day 2): 98%
stability of ITZA ([3]; H3D/10% Dex., day 3): 102%
stability of ITZA ([3]; H3D/10% Dex., day 4): 99%
stability of ITZA ([3]; H3D/10% Dex., day 5): 105%
stability of ITZA ([3]; H3D/sal., day 0): 100%
stability of ITZA ([3]; H3D/sal., day 1): 107%
stability of ITZA ([3]; H3D/sal., day 2): 107%
stability of ITZA ([3]; H3D/sal., day 3): 110%
stability of ITZA ([3]; H3D/sal., day 5): 90%
stability of ITZA ([3]; H3G, day 0): 100%
stability of ITZA ([3]; H3G, day 1): 103%
stability of ITZA ([3]; H3G, day 2): 100%
stability of ITZA ([3]; H3G, day 3): 89%
stability of ITZA ([3]; H3G, day 4): 103%
stability of ITZA ([3]; H3G, day 5): 106%
stability of ITZA ([3]; H3G/5% Dex., day 0): 100%
stability of ITZA ([3]; H3G/5% Dex., day 1): 102%
stability of ITZA ([3]; H3G/5% Dex., day 2): 109%
stability of ITZA ([3]; H3G/5% Dex., day 3): 94%
stability of ITZA ([3]; H3G/5% Dex., day 4): 99%
stability of ITZA ([3]; H3G/5% Dex., day 5): 42%
stability of ITZA ([3]; H3G/10% dex., day 0): 100%
stability of ITZA ([3]; H3G/10% dex., day 2): 102%
stability of ITZA ([3]; H3G/10% dex., day 3): 98%
stability of ITZA ([3]; H3G/10% dex., day 4): 107%
stability of ITZA ([3]; H3G/10% dex., day 5): 31%
stability of ITZA ([3]; H3G/sal., day 0): 100%
stability of ITZA ([3]; H3G/sal., day 1): 95%
stability of ITZA ([3]; H3G/sal., day 2): 94%
stability of ITZA ([3]; H3G/sal., day 3): 80%
stability of ITZA ([3]; H3G/sal., day 4): 70%
stability of ITZA ([3]; H3G/sal., day 5): 38%
Stability (%) ([3]; Solvent H3G, 0 hr): 100%
Stability (%) ([3]; Solvent H3G, 2 hr): 108%
Stability (%) ([3]; Solvent H3G, 4 hr): 104%
Stability (%) ([3]; Solvent H3G, 6 hr): 101%
Stability (%) ([3]; Solvent H3G, 8 hr): 98%
Stability (%) ([3]; Solvent H3G, 24 hr): 103%
Stability (%) ([3]; parent solvent H3, approximately 4 mg/mL, room temperature, 14 (2 w)): 83%
Stability (%) ([3]; parent solvent H3, approximately 4 mg/mL, room temperature, 21 (3 w)): 79%
Stability (%) ([3]; parent solvent H3, approximately 4 mg/mL, room temperature, 28 (4 w)): 75%
Stability (%) ([3]; parent solvent H3, approximately 4 mg/mL, room temperature, 35 (5 w)): 77%
Stability (%) ([3]; parent solvent H3, approximately 4 mg/mL, room temperature, 49 (7 w)): 79%
Stability (%) ([3]; parent solvent H3, approximately 4 mg/mL, room temperature, 63 (9 w)): 75%
Stability (%) ([3]; parent solvent H3, approximately 4 mg/mL, room temperature, 24 hrs): 99%
Stability (%) ([3]; parent solvent H3, approximately 4 mg/mL, room temperature, 72 hrs): 95%
Stability (%) ([3]; parent solvent H3, approximately 4 mg/mL, room temperature, 96 hrs): 88%
Stability (%) ([3]; parent solvent H3, approximately 4 mg/mL, room temperature, 11 days): 77%
Stability (%) ([3]; parent solvent H3, approximately 4 mg/mL, room temperature, time 0): 100%
Stability (%) ([3]; solvent H3, approximately 4 mg/mL, 40° C., 3 hr): 104%
Stability (%) ([3]; solvent H3, approximately 4 mg/mL, 40° C., 6 hr): 98%
Stability (%) ([3]; solvent H3, approximately 4 mg/mL, 40° C., 24 hr): 92%
Stability (%) ([3]; solvent H3, approximately 4 mg/mL, 40° C., 30 hr): 89%
Stability (%) ([3]; solvent H3, approximately 4 mg/mL, 40° C., 48 hr): 84%
Stability (%) ([3]; solvent H3, approximately 4 mg/mL, 40° C., 54 hr): 79%
Stability (%) ([3]; solvent H3, approximately 4 mg/mL, 40° C., 78 hr): 80%
Stability (%) ([3]; solvent H3, approximately 4 mg/mL, 40° C., 4 days): 78%
Stability (%) ([3]; solvent H3, approximately 4 mg/mL, 40° C., 7 days): 70%
Stability (%) ([3]; solvent H3, approximately 4 mg/mL, 40° C., 8 days): 70%
Stability (%) ([3]; solvent H3, approximately 4 mg/mL, 40° C., 9 days): 58%
Stability (%) ([3]; solvent H3, approximately 4 mg/mL, 40° C., 14 days): 56%
Stability (%) ([3]; solvent H3, approximately 4 mg/mL, 40° C., 16 days): 55%
Stability (%) ([3]; solvent H3, approximately 4 mg/mL, 40° C., 18 days): 54%
Stability (%) ([3]; solvent H3, approximately 4 mg/mL, 40° C., 21 days): 45%
Stability (%) ([3]; solvent H3, approximately 4 mg/mL, 40° C., 25 days): 37%
Stability (%) ([3]; solvent H3, approximately 4 mg/mL, 40° C., 28 days): 30%
Stability (%) ([3]; solvent H3, approximately 4 mg/mL, 40° C., 32 days): 24%
Stability (%) ([3]; solvent H3/normal saline (1:1), approximately 2.0 mg/mL, RT, 0 hrs): 100%
Stability (%) ([3]; solvent H3/normal saline (1:1), approximately 2.0 mg/mL, RT, 2 hrs): 97%
Stability (%) ([3]; solvent H3/normal saline (1:1), approximately 2.0 mg/mL, RT, 4 hrs): 97%
Stability (%) ([3]; solvent H3/normal saline (1:1), approximately 2.0 mg/mL, RT, 8 hrs): 102%
Stability (%) ([3]; solvent H3/normal saline (1:1), approximately 2.0 mg/mL, RT, 14 hrs): 109%
Stability (%) ([3]; solvent H3/normal saline (1:1), approximately 2.0 mg/mL, RT, 24 hrs): 93%
MIC [4]: 2.5 µg/mL (≈ 3.54 µM)
